Measurements: PMC9661477, “New Dual P-Glycoprotein (P-gp) and Human Carbonic Anhydrase XII (hCA XII) Inhibitors as Multidrug Resistance (MDR) Reversers in Cancer Cells” (Journal of Medicinal Chemistry, 2022)
Counter-ions that a name gives are not always drawn.

Assays:
[1] = biological target: hCA II (Homo sapiens, UniProt P00918); experiment: stopped-flow CO2 hydrase assay, hCA II; conditions: read-out: Ki hCA II; stopped-flow technique, mean from three different assays
Excerpt: (§1) An SX.18MV-R Applied Photophysics (Oxford, U.K.) stopped-flow instrument has been used to assay the catalytic/inhibition of various CA isozymes.[38] […] The inhibition constants were obtained by nonlinear least-squares methods using the Cheng–Prusoff equation, as reported earlier,[32] and represent the mean from at least three different determinations.

[2] = biological target: hCA IX (Homo sapiens, UniProt Q16790); experiment: stopped-flow CO2 hydrase assay, hCA IX; conditions: read-out: Ki hCA IX; stopped-flow technique, mean from three different assays
Excerpt: as §1

[3] = biological target: hCA I (Homo sapiens, UniProt P00915); experiment: stopped-flow CO2 hydrase assay, hCA I; conditions: read-out: Ki hCA I; stopped-flow technique, mean from three different assays
Chain of hCA I (P00915 whole entry): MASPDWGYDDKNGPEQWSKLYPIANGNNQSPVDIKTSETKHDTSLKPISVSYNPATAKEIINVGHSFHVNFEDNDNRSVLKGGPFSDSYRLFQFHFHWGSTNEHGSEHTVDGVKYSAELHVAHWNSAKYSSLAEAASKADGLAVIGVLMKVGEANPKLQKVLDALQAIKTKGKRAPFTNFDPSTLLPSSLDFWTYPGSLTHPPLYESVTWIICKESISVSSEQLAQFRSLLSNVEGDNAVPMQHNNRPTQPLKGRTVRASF
Excerpt: as §1

COc1cc(/C=C/C(=O)OCCCCCN(CCCOC(=O)c2cc(OC)c(OC)c(OC)c2)CCCOc2ccc3ccc(=O)oc3c2)cc(OC)c1OC (as salt: hydrochloride) [Compound 2, (E)-3-((3-((2-Oxo-2H-chromen-7-yl)oxy)propyl)(5-((3-(3,4,5-trimethoxyphenyl)acryloyl)oxy)pentyl)amino)propyl 3,4,5-Trimethoxybenzoate]
melting point: 128 to 131 °C

COc1cc(/C=C/C(=O)OCCCN(CCCCCCCOC(=O)c2cc(OC)c(OC)c(OC)c2)CCCOc2ccc3ccc(=O)oc3c2)cc(OC)c1OC (as salt: hydrochloride) [Compound 22, (E)-7-((3-((2-Oxo-2H-chromen-7-yl)oxy)propyl)(3-((3-(3,4,5-trimethoxyphenyl)acryloyl)oxy)propyl)amino)heptyl 3,4,5-Trimethoxybenzoate]
melting point: 73 to 76 °C

COc1cc(/C=C/C(=O)OCCCCCCN(CCCOC(=O)c2c3ccccc3cc3ccccc23)CCCOc2ccc3ccc(=O)oc3c2)cc(OC)c1OC (as salt: hydrochloride) [Compound 12, (E)-3-((3-((2-Oxo-2H-chromen-7-yl)oxy)propyl)(6-((3-(3,4,5-trimethoxyphenyl)acryloyl)oxy)hexyl)amino)propyl Anthracene-9-carboxylate]
melting point: 99 to 102 °C

COc1cc(/C=C/C(=O)OCCCCCN(CCCOC(=O)/C=C/c2cc(OC)c(OC)c(OC)c2)CCCOc2ccc3ccc(=O)oc3c2)cc(OC)c1OC (as salt: hydrochloride) [Compound 1, (E)-5-((3-((2-Oxo-2H-chromen-7-yl)oxy)propyl)(3-(((E)-3-(3,4,5-trimethoxyphenyl)acryloyl)oxy)propyl)amino)pentyl 3-(3,4,5-Trimethoxyphenyl)acrylate]
melting point: 81 to 84 °C

COc1cc(C(=O)OCCCCCCCN(CCCOC(=O)c2c3ccccc3cc3ccccc23)CCCOc2ccc3ccc(=O)oc3c2)cc(OC)c1OC (as salt: hydrochloride) [Compound 24, 3-((3-((2-Oxo-2H-chromen-7-yl)oxy)propyl)(7-((3,4,5-trimethoxybenzoyl)oxy)heptyl)amino)propyl Anthracene-9-carboxylate]
melting point: 75 to 77 °C

COc1cc(/C=C/C(=O)OCCCCCCCN(CCCOC(=O)c2c3ccccc3cc3ccccc23)CCCOc2ccc3ccc(=O)oc3c2)cc(OC)c1OC (as salt: hydrochloride) [Compound 21, (E)-3-((3-((2-Oxo-2H-chromen-7-yl)oxy)propyl)(7-((3-(3,4,5-trimethoxyphenyl)acryloyl)oxy)heptyl)amino)propyl Anthracene-9-carboxylate]
melting point: 100 to 102 °C

COc1cc(C(=O)OCCCCCCN(CCCOC(=O)c2c3ccccc3cc3ccccc23)CCCOc2ccc3ccc(=O)oc3c2)cc(OC)c1OC (as salt: hydrochloride) [Compound 15, 3-((3-((2-Oxo-2H-chromen-7-yl)oxy)propyl)(6-((3,4,5-trimethoxybenzoyl)oxy)hexyl)amino)propyl Anthracene-9-carboxylate]
melting point: 148 to 151 °C

COc1cc(/C=C/C(=O)OCCCCCN(CCCOC(=O)c2c3ccccc3cc3ccccc23)CCCOc2ccc3ccc(=O)oc3c2)cc(OC)c1OC (as salt: hydrochloride) [Compound 3, (E)-3-((3-((2-Oxo-2H-chromen-7-yl)oxy)propyl)(5-((3-(3,4,5-trimethoxyphenyl)acryloyl)oxy)pentyl)amino)propyl Anthracene-9-carboxylate]
melting point: 94 to 97 °C

O=C(OCCCCCCN(CCCOC(=O)c1c2ccccc2cc2ccccc12)CCCOc1ccc2ccc(=O)oc2c1)c1c2ccccc2cc2ccccc12 (as salt: hydrochloride) [Compound 18, 3-((6-((Anthracene-9-carbonyl)oxy)hexyl)(3-((2-oxo-2H-chromen-7-yl)oxy)propyl)amino)propyl Anthracene-9-carboxylate]
melting point: 136 to 139 °C

COc1cc(/C=C/C(=O)OCCCCCCN(CCCOC(=O)c2cc(OC)c(OC)c(OC)c2)CCCOc2ccc3ccc(=O)oc3c2)cc(OC)c1OC (as salt: hydrochloride) [Compound 11, (E)-3-((3-((2-Oxo-2H-chromen-7-yl)oxy)propyl)(6-((3-(3,4,5-trimethoxyphenyl)acryloyl)oxy)hexyl)amino)propyl 3,4,5-Trimethoxybenzoate]
melting point: 71 to 74 °C

COc1cc(C(=O)OCCCCCN(CCCOC(=O)c2cc(OC)c(OC)c(OC)c2)CCCOc2ccc3ccc(=O)oc3c2)cc(OC)c1OC (as salt: hydrochloride) [Compound 5, 5-((3-((2-Oxo-2H-chromen-7-yl)oxy)propyl)(3-((3,4,5-trimethoxybenzoyl)oxy)propyl)amino)pentyl 3,4,5-Trimethoxybenzoate]
melting point: 84 to 87 °C

COc1cc(/C=C/C(=O)OCCCN(CCCCCCOC(=O)c2cc(OC)c(OC)c(OC)c2)CCCOc2ccc3ccc(=O)oc3c2)cc(OC)c1OC (as salt: hydrochloride) [Compound 13, (E)-6-((3-((2-Oxo-2H-chromen-7-yl)oxy)propyl)(3-((3-(3,4,5-trimethoxyphenyl)acryloyl)oxy)propyl)amino)hexyl 3,4,5-Trimethoxybenzoate]
melting point: 78 to 81 °C

COc1cc(/C=C/C(=O)OCCCN(CCCCCOC(=O)c2c3ccccc3cc3ccccc23)CCCOc2ccc3ccc(=O)oc3c2)cc(OC)c1OC (as salt: hydrochloride) [Compound 7, (E)-5-((3-((2-Oxo-2H-chromen-7-yl)oxy)propyl)(3-((3-(3,4,5-trimethoxyphenyl)acryloyl)oxy)propyl)amino)pentyl Anthracene-9-carboxylate]
melting point: 92 to 95 °C

COc1cc(C(=O)OCCCN(CCCCCCOC(=O)c2c3ccccc3cc3ccccc23)CCCOc2ccc3ccc(=O)oc3c2)cc(OC)c1OC (as salt: hydrochloride) [Compound 17, 6-((3-((2-Oxo-2H-chromen-7-yl)oxy)propyl)(3-((3,4,5-trimethoxybenzoyl)oxy)propyl)amino)hexyl Anthracene-9-carboxylate]
melting point: 87 to 90 °C

O=C(OCCCCCN(CCCOC(=O)c1c2ccccc2cc2ccccc12)CCCOc1ccc2ccc(=O)oc2c1)c1c2ccccc2cc2ccccc12 (as salt: hydrochloride) [Compound 9, 3-((5-((Anthracene-9-carbonyl)oxy)pentyl)(3-((2-oxo-2H-chromen-7-yl)oxy)propyl)amino)propyl Anthracene-9-carboxylate]
melting point: 118 to 121 °C

COc1cc(/C=C/C(=O)OCCCN(CCCCCCCOC(=O)c2c3ccccc3cc3ccccc23)CCCOc2ccc3ccc(=O)oc3c2)cc(OC)c1OC (as salt: hydrochloride) [Compound 25, (E)-7-((3-((2-Oxo-2H-chromen-7-yl)oxy)propyl)(3-((3-(3,4,5-trimethoxyphenyl)acryloyl)oxy)propyl)amino)heptyl Anthracene-9-carboxylate]
melting point: 107 to 110 °C

COc1cc(/C=C/C(=O)OCCCCCCCN(CCCOC(=O)c2cc(OC)c(OC)c(OC)c2)CCCOc2ccc3ccc(=O)oc3c2)cc(OC)c1OC (as salt: hydrochloride) [Compound 20, (E)-3-((3-((2-Oxo-2H-chromen-7-yl)oxy)propyl)(7-((3-(3,4,5-trimethoxyphenyl)acryloyl)oxy)heptyl)amino)propyl 3,4,5-Trimethoxybenzoate]
melting point: 84 to 87 °C

COc1cc(/C=C/C(=O)OCCCN(CCCCCCOC(=O)c2c3ccccc3cc3ccccc23)CCCOc2ccc3ccc(=O)oc3c2)cc(OC)c1OC (as salt: hydrochloride) [Compound 16, (E)-6-((3-((2-Oxo-2H-chromen-7-yl)oxy)propyl)(3-((3-(3,4,5-trimethoxyphenyl)acryloyl)oxy)propyl)amino)hexyl Anthracene-9-carboxylate]
melting point: 92 to 95 °C

COc1cc(/C=C/C(=O)OCCCCCCCN(CCCOC(=O)/C=C/c2cc(OC)c(OC)c(OC)c2)CCCOc2ccc3ccc(=O)oc3c2)cc(OC)c1OC (as salt: hydrochloride) [Compound 19, (E)-7-((3-((2-Oxo-2H-chromen-7-yl)oxy)propyl)(3-(((E)-3-(3,4,5-trimethoxyphenyl)acryloyl)oxy)propyl)amino)heptyl 3-(3,4,5-Trimethoxyphenyl)acrylate]
melting point: 90 to 92 °C

COc1cc(C(=O)OCCCCCCCN(CCCOC(=O)c2cc(OC)c(OC)c(OC)c2)CCCOc2ccc3ccc(=O)oc3c2)cc(OC)c1OC (as salt: hydrochloride) [Compound 23, 7-((3-((2-Oxo-2H-chromen-7-yl)oxy)propyl)(3-((3,4,5-trimethoxybenzoyl)oxy)propyl)amino)heptyl 3,4,5-Trimethoxybenzoate]
melting point: 74 to 77 °C

COc1cc(C(=O)OCCCCCCN(CCCOC(=O)c2cc(OC)c(OC)c(OC)c2)CCCOc2ccc3ccc(=O)oc3c2)cc(OC)c1OC (as salt: hydrochloride) [Compound 14, 6-((3-((2-Oxo-2H-chromen-7-yl)oxy)propyl)(3-((3,4,5-trimethoxybenzoyl)oxy)propyl)amino)hexyl 3,4,5-Trimethoxybenzoate]
melting point: 83 to 85 °C

COc1cc(/C=C/C(=O)OCCCCCN(CCCOC(=O)/C=C/c2cc(OC)c(OC)c(OC)c2)CCCOc2ccc3ccc(=O)oc3c2)cc(OC)c1OC [Compound 1, (E)-5-((3-((2-Oxo-2H-chromen-7-yl)oxy)propyl)(3-(((E)-3-(3,4,5-trimethoxyphenyl)acryloyl)oxy)propyl)amino)pentyl 3-(3,4,5-Trimethoxyphenyl)acrylate]
Ki [1]: > 10 µM
Ki [2]: 0.0395 µM
Ki [3]: > 10 µM

COc1cc(/C=C/C(=O)OCCCCCCCN(CCCOC(=O)c2c3ccccc3cc3ccccc23)CCCOc2ccc3ccc(=O)oc3c2)cc(OC)c1OC [Compound 21, (E)-3-((3-((2-Oxo-2H-chromen-7-yl)oxy)propyl)(7-((3-(3,4,5-trimethoxyphenyl)acryloyl)oxy)heptyl)amino)propyl Anthracene-9-carboxylate]
Ki [1]: > 10 µM
Ki [2]: 0.0142 µM
Ki [3]: > 10 µM
